# Data taken from patent US20230019236A1, “PROTEIN TYROSINE PHOSPHATASE INHIBITORS AND METHODS OF USE THEREOF” (Calico Life Sciences LLC, priority 2019, published 2023).
# Molecular target: T1, His tagged full-length PTP1B protein (Homo sapiens, UniProt P18031)
# T1 construct: made in house
# T1 sequence (P18031 with tags, fused parts or gaps): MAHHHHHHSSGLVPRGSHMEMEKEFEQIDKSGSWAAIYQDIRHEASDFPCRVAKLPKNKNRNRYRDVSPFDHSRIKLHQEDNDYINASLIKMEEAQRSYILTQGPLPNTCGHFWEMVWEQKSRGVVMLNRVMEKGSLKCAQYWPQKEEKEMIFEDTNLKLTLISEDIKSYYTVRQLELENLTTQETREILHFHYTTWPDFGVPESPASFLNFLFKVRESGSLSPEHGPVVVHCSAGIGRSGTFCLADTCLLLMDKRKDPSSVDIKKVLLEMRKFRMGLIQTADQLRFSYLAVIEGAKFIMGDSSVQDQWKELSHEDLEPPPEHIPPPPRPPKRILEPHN
# Experiment: Mobility Shift Assay (MSA) used to determine potency of PTP1B inhibitors
# Format: biochemical
# Conditions: Table 2
# Procedure: The enzymatic assay used to determine activity is a mobility shift assay using a LabChip EZ Reader by Caliper Life Sciences. The enzymatic reaction was carried out in assay buffer (50 mM HEPES pH 7.5, 1 mM EGTA, 10 mM EDTA, 0.01% Tween® 20, and 2 mM DTT). […] The enzyme (at 0.5 nM) was incubated with compound for 10 minutes at room temperature. […] The % inhibition was then used to calculate the IC50 values.
row,Structure (SMILES),IC50
1,"O=C1CN(c2c(O)cc3ccc(NCCN4CCC4)cc3c2F)S(=O)(=O)N1 [Compound 177, 5-(7-{[2-(azetidin-1-yl)ethyl]amino}-1-fluoro-3-hydroxynaphthalen-2-yl)-1λ^6,2,5-thiadiazolidine-1,1,3-trione]",> 100 nM
2,"COCCNc1ccc2cc(O)c(N3CC(=O)NS3(=O)=O)c(F)c2c1 [Compound 179, 5-{1-fluoro-3-hydroxy-7-[(2-methoxyethyl)amino]naphthalen-2-yl}-1λ^6,2,5-thiadiazolidine-1,1,3-trione]",> 100 nM
3,"O=C1CN(c2c(O)cc3ccc(OCC4CC4)cc3c2F)S(=O)(=O)N1 [Compound 250, 5-[7-(cyclopropylmethoxy)-1-fluoro-3-hydroxynaphthalen-2-yl]-1λ^6,2,5-thiadiazolidine-1,1,3-trione]",1 to 10 nM
4,"O=C1CN(c2c(O)cc3ccc(OCCNC4CC4)cc3c2F)S(=O)(=O)N1 [Compound 142, 5-{7-[2-(cyclopropylamino)ethoxy]-1-fluoro-3-hydroxynaphthalen-2-yl}-1λ^6,2,5-thiadiazolidine-1,1,3-trione]",10 to 100 nM
5,"COc1ccc2c(Br)c(O)c(N3CC(=O)NS3(=O)=O)c(F)c2c1 [Compound 243, 5-(4-bromo-1-fluoro-3-hydroxy-7-methoxynaphthalen-2-yl)-1λ^6,2,5-thiadiazolidine-1,1,3-trione]",> 100 nM
6,"O=C1CN(c2c(O)cc3ccc(OCCCn4cccn4)cc3c2F)S(=O)(=O)N1 [Compound 183, 5-{1-fluoro-3-hydroxy-7-[3-(1H-pyrazol-1-yl)propoxy]naphthalen-2-yl}-1λ^6,2,5-thiadiazolidine-1,1,3-trione]",1 to 10 nM
7,"C=C(c1ccc2cc(O)c(N3CC(=O)NS3(=O)=O)c(F)c2c1)c1c(C)c(C)c(C)c(C)c1C [Compound 241, 5-{1-fluoro-3-hydroxy-7-[1-(pentamethylphenyl)ethenyl]naphthalen-2-yl}-1λ^6,2,5-thiadiazolidine-1,1,3-trione]",> 100 nM
8,"O=C1CN(c2c(O)cc3ccc(CO)cc3c2F)S(=O)(=O)N1 [Compound 185, 5-[1-fluoro-3-hydroxy-7-(hydroxymethyl)naphthalen-2-yl]-1λ^6,2,5-thiadiazolidine-1,1,3-trione]",10 to 100 nM
9,"O=C1CN(c2c(O)cc3ccc(C4CC4)cc3c2F)S(=O)(=O)N1 [Compound 236, 5-(7-cyclopropyl-1-fluoro-3-hydroxynaphthalen-2-yl)-1λ^6,2,5-thiadiazolidine-1,1,3-trione]",> 100 nM
10,"O=C1CN(c2c(O)cc3ccc(OCCN4CCC4)cc3c2F)S(=O)(=O)N1 [Compound 105, 5-{7-[2-(azetidin-1-yl)ethoxy]-1-fluoro-3-hydroxynaphthalen-2-yl}-1λ^6,2,5-thiadiazolidine-1,1,3-trione]",1 to 10 nM
11,"COC/C=C/c1ccc2cc(O)c(N3CC(=O)NS3(=O)=O)c(F)c2c1 [Compound 245, 5-{1-fluoro-3-hydroxy-7-[(1E)-3-methoxyprop-1-en-1-yl]naphthalen-2-yl}-1λ^6,2,5-thiadiazolidine-1,1,3-trione]",1 to 10 nM
12,"C[C@@H](O)CCOc1ccc2cc(O)c(N3CC(=O)NS3(=O)=O)c(F)c2c1 [Compound 149, 5-{1-fluoro-3-hydroxy-7-[(3R)-3-hydroxybutoxy]naphthalen-2-yl}-1λ^6,2,5-thiadiazolidine-1,1,3-trione]",1 to 10 nM
13,"[2H]c1c(O)c(N2C([2H])([2H])C(=O)NS2(=O)=O)c(F)c2cc(OC)ccc12 [Compound 106, 5-[1-fluoro-3-hydroxy-7-methoxy(4-^2H)naphthalen-2-yl](4,4-2H2)-1λ^6,2,5-thiadiazolidine-1,1,3-trione]",1 to 10 nM
14,"CP(C)(=O)c1ccc(-c2ccc3cc(O)c(N4CC(=O)NS4(=O)=O)c(F)c3c2)s1 [Compound 141, 5-{7-[5-(dimethylphosphoryl)thiophen-2-yl]-1-fluoro-3-hydroxynaphthalen-2-yl}-1λ^6,2,5-thiadiazolidine-1,1,3-trione]",1 to 10 nM
15,"O=C1CN(c2c(O)cc3ccc(NCCNS(=O)(=O)C4CC4)cc3c2F)S(=O)(=O)N1 [Compound 125, N-(2-{[8-fluoro-6-hydroxy-7-(1,1,4-trioxo-1λ^6,2,5-thiadiazolidin-2-yl)naphthalen-2-yl]amino}ethyl)cyclopropanesulfonamide]",10 to 100 nM
16,"CC(C)CCOc1ccc2cc(O)c(N3CC(=O)NS3(=O)=O)c(F)c2c1 [Compound 204, 5-[1-fluoro-3-hydroxy-7-(3-methylbutoxy)naphthalen-2-yl]-1λ^6,2,5-thiadiazolidine-1,1,3-trione]",< 1 nM
17,"O=C1CN(c2c(O)cc3ccc(C4CCS(=O)(=O)CC4)cc3c2F)S(=O)(=O)N1 [Compound 248, 5-[7-(1,1-dioxo-1λ^6-thian-4-yl)-1-fluoro-3-hydroxynaphthalen-2-yl]-1λ^6,2,5-thiadiazolidine-1,1,3-trione]",> 100 nM
18,"O=C1CN(c2c(O)cc3ccc(NCCC(F)(F)F)cc3c2F)S(=O)(=O)N1 [Compound 169, 5-{1-fluoro-3-hydroxy-7-[(3,3,3-trifluoropropyl)amino]naphthalen-2-yl}-1λ^6,2,5-thiadiazolidine-1,1,3-trione]",10 to 100 nM
19,"COCCS(=O)(=O)N1CC=C(c2ccc3cc(O)c(N4CC(=O)NS4(=O)=O)c(F)c3c2)C1 [Compound 286, 5-{1-fluoro-3-hydroxy-7-[1-(2-methoxyethanesulfonyl)-2,5-dihydro-1H-pyrrol-3-yl]naphthalen-2-yl}-1λ^6,2,5-thiadiazolidine-1,1,3-trione]",< 1 nM
20,"CCN(CC)C(=O)COc1ccc2cc(O)c(N3CC(=O)NS3(=O)=O)c(F)c2c1 [Compound 282, N,N-diethyl-2-{[8-fluoro-6-hydroxy-7-(1,1,4-trioxo-1λ^6,2,5-thiadiazolidin-2-yl)naphthalen-2-yl]oxy}acetamide]",10 to 100 nM
21,"O=C1CN(c2c(O)cc3ccc(OCCCC(F)(F)F)cc3c2F)S(=O)(=O)N1 [Compound 158, 5-[1-fluoro-3-hydroxy-7-(4,4,4-trifluorobutoxy)naphthalen-2-yl]-1λ^6,2,5-thiadiazolidine-1,1,3-trione]",1 to 10 nM
22,"CS(=O)(=O)N1CCC(Nc2ccc3cc(O)c(N4CC(=O)NS4(=O)=O)c(F)c3c2)CC1 [Compound 305, 5-(1-fluoro-3-hydroxy-7-{[1-(methanesulfonyl)piperidin-4-yl]amino}naphthalen-2-yl)-1λ^6,2,5-thiadiazolidine-1,1,3-trione]",> 100 nM
23,"CNCCOc1ccc2cc(O)c(N3CC(=O)NS3(=O)=O)c(F)c2c1 [Compound 143, 5-{1-fluoro-3-hydroxy-7-[2-(methylamino)ethoxy]naphthalen-2-yl}-1λ^6,2,5-thiadiazolidine-1,1,3-trione]",10 to 100 nM
24,"O=C1CN(c2c(O)cc3ccc(OCCn4cccn4)cc3c2F)S(=O)(=O)N1 [Compound 188, 5-{1-fluoro-3-hydroxy-7-[2-(1H-pyrazol-1-yl)ethoxy]naphthalen-2-yl}-1λ^6,2,5-thiadiazolidine-1,1,3-trione]",1 to 10 nM
25,"N#CCc1ccc2cc(O)c(N3CC(=O)NS3(=O)=O)c(F)c2c1 [Compound 228, [8-fluoro-6-hydroxy-7-(1,1,4-trioxo-1λ^6,2,5-thiadiazolidin-2-yl)naphthalen-2-yl]acetonitrile]",10 to 100 nM
26,"CCCCS(=O)(=O)N1CC=C(c2ccc3cc(O)c(N4CC(=O)NS4(=O)=O)c(F)c3c2)C1 [Compound 291, 5-{7-[1-(butane-1-sulfonyl)-2,5-dihydro-1H-pyrrol-3-yl]-1-fluoro-3-hydroxynaphthalen-2-yl}-1λ^6,2,5-thiadiazolidine-1,1,3-trione]",< 1 nM
